# Experimental data published in US20070111265A1, “Ligands for mineralocorticoid receptor (MR) and methods for screening for or designing MR ligands” (Van Andel Research Institute, priority 2005, published 2007).
# Values joined by “and” are separate entries in the source; they are usually repeats but may differ in a detail not shown here. Equal entries are not always repeated. “Also recorded” adds a separate entry of the source. Where two headings read alike, the source gives them in different places.
# What was measured:
# GR Q642L = biological target: T1, GR Q642L (Homo sapiens, UniProt P04150, Q642L); assay: MMTV luciferase reporter assay in Cos-7 cells; format: cell-based; settings: Cos-7, MMTV-Luc
# T1 construct: reverse mutations in the full length GR receptor (P637S and Q642L); expressed in transfected cells; host or cells: Cos-7
# T1 sequence (P04150 1-777 Q642L): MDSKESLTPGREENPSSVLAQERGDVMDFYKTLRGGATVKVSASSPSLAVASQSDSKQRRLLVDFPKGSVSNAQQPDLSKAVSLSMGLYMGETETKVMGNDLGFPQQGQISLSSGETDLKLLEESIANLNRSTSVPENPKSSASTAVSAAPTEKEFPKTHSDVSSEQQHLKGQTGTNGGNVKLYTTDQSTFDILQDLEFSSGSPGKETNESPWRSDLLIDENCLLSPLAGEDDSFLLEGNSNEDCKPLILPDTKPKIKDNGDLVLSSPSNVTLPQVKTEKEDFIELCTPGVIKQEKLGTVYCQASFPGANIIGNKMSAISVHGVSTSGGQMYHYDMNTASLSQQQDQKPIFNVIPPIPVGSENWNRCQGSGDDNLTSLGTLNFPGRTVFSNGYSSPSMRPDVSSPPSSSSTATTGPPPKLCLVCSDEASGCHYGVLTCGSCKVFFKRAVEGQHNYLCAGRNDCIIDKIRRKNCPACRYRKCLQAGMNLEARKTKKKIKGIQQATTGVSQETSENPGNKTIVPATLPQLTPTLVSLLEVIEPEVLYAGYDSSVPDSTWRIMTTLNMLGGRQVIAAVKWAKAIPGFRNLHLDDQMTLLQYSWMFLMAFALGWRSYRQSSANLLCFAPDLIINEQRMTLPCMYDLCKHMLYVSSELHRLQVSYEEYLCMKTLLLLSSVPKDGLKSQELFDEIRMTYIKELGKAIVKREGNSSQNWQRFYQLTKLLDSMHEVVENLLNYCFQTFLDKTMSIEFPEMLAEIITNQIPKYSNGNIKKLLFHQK
# Experimental: (§1) Cos-7 cells were maintained in DMEM containing 10% fetal bovine serum (FBS) and were transiently transfected using Lipofectamine 2000 (Invitrogen). […] Cells were transfected in Opti-MEM with 400 ng of MMTV-Luc reporter plasmid and 400 ng of receptor expression vector (pRS vector) encoding full-length GR and MR respectively (ATCC). […] Luciferase data were normalized to Renilla activity as an internal control.
# (§2) To validate the role of the key MR pocket residues in hormone recognition, the inventors mutated S843 and L848 to the corresponding GR residues (S843P and L848Q) within the context of the full length wild type receptor. […] We also performed reverse mutations in the full length GR receptor (P637S and Q642L) and tested them in the same MMTV reporter.
# [1] = biological target: T2, wild type MR (full-length) (Homo sapiens, UniProt P08235); assay: MMTV luciferase reporter assay in Cos-7 cells; format: cell-based
# T2 construct: receptor expression vector (pRS vector) encoding full-length GR and MR respectively (ATCC); host or cells: Cos-7
# T2 sequence (P08235 1-984): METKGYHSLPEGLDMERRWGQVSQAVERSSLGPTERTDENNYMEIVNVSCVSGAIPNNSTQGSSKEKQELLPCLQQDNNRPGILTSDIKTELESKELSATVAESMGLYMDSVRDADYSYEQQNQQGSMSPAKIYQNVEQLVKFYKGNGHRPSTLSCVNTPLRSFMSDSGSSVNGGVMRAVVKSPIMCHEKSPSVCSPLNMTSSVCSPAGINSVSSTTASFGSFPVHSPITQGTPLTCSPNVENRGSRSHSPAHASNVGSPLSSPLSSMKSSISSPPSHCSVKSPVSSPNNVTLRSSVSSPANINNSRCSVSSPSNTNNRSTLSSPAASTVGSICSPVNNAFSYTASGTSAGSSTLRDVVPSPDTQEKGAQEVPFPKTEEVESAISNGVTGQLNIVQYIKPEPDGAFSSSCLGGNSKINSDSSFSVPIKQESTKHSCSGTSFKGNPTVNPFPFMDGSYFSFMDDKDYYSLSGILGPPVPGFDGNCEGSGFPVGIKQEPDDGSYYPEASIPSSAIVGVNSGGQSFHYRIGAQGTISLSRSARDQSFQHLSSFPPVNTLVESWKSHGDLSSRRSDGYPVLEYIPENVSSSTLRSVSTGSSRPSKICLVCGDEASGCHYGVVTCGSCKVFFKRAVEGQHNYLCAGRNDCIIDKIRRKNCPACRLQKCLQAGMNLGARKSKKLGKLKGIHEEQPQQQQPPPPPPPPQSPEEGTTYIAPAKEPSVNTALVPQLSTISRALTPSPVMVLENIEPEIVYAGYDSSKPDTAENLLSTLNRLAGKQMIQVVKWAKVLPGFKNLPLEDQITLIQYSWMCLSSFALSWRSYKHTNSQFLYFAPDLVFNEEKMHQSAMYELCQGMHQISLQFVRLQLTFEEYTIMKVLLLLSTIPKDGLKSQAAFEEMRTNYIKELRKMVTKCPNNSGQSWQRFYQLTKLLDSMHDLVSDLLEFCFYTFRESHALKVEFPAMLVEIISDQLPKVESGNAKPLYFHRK
# Experimental: as §1, §2
# [2] = Cos-7, MMTV-Luc, read-out: EC50, activation of wild type MR
# [3] = summary of FIG. 5 dose-response, read-out: affinity to MR (shown in FIG. 5)
SMILES,activation of GR Q642L (GR Q642L),"EC50 [1, 2]","EC50 [1, 3]",potency of corticosterone relative to cortisol ([1]; wild type MR)
C[C@]12C[C@H](O)[C@H]3[C@@H](CCC4=CC(=O)CC[C@@]43C)[C@@H]1CC[C@@H]2C(=O)CO [corticosterone],remained intact,0.08 nM and < 0.1 nM,0.1 to 1 nM,roughly 10 fold
C[C@]12CCC(=O)C=C1CC[C@@H]1[C@@H]2[C@@H](O)C[C@@]2(C)[C@H]1CC[C@]2(O)C(=O)CO [cortisol],completely abolished activation; also recorded: inability of cortisol to activate,0.6 nM,0.1 to 1 nM,–
